From ChEMBL document CHEMBL1201862, “PubChem BioAssay data set” (2004)
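Tested at 5 concentrations; 48 h exposure; 96-well plates; endpoints linearly interpolated, else capped at highest concentration. GI50 = concentration required for 50% inhibition of growth.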 Active and inactive are the calls of the source. Rule as the data show it: active = GI50 up to about 1.1 µM and inactive = higher.

Key:
Experiment in all cases: DTP human tumour cell line panel, 48 h
786-0 = system: 786-0
A498 = system: A498
A549 = system: A549
ACHN = system: ACHN
BT-549 = system: BT-549
CAKI-1 = system: CAKI-1
CCRF-CEM = system: CCRF-CEM
COLO 205 = system: COLO 205
DU-145 = system: DU-145
EKVX = system: EKVX
HCC 2998 = system: HCC 2998
HCT-116 = system: HCT-116
HCT-15 = system: HCT-15
HL-60 = system: HL-60
HOP-62 = system: HOP-62
HOP-92 = system: HOP-92
HT-29 = system: HT-29
Hs-578T = system: Hs-578T
IGROV-1 = system: IGROV-1
K562 = system: K562
KM12 = system: KM12
LOX IMVI = system: LOX IMVI
M14 = system: M14
MCF7 = system: MCF7
MDA-MB-231 = system: MDA-MB-231
MDA-MB-435 = system: MDA-MB-435
MDA-N = system: MDA-N
MOLT-4 = system: MOLT-4
Malme-3M = system: Malme-3M
NCI-H226 = system: NCI-H226
NCI-H23 = system: NCI-H23
NCI-H460 = system: NCI-H460
NCI-H522 = system: NCI-H522
NCI/ADR-RES = system: NCI/ADR-RES
OVCAR-3 = system: OVCAR-3
OVCAR-4 = system: OVCAR-4
OVCAR-5 = system: OVCAR-5
OVCAR-8 = system: OVCAR-8
PC-3 = system: PC-3
RPMI-8226 = system: RPMI-8226
RXF 393 = system: RXF 393
SF-268 = system: SF-268
SF-295 = system: SF-295
SF-539 = system: SF-539
SK-MEL-28 = system: SK-MEL-28
SK-MEL-2 = system: SK-MEL-2
SK-MEL-5 = system: SK-MEL-5
SK-OV-3 = system: SK-OV-3
SN12C = system: SN12C
SNB-19 = system: SNB-19
SNB-75 = system: SNB-75
SW-620 = system: SW-620
T47D = system: T47D
TK-10 = system: TK-10
U-251 = system: U-251
UACC-257 = system: UACC-257
UACC-62 = system: UACC-62
UO-31 = system: UO-31

`Oc1cccc2cc(Cl)cnc12` was tested, and the GI50 (786-0) was 23.6 µM (inactive), the GI50 (A498) was 23.8 µM (inactive) and the GI50 (A549) was 7.08 µM (inactive). For the same molecule, the GI50 (ACHN) was 8.95 µM (inactive), the GI50 (BT-549) was 22.6 µM (inactive) and the GI50 (CAKI-1) was 55.1 µM (inactive). The GI50 (CCRF-CEM) was 2.45 µM (inactive), the GI50 (COLO 205) was 31.4 µM (inactive) and the GI50 (DU-145) was 31.5 µM (inactive). For the same molecule, the GI50 (EKVX) was 4.88 µM (inactive), the GI50 (HCC 2998) was 27.1 µM (inactive) and the GI50 (HCT-116) was 4.46 µM (inactive). The GI50 (HCT-15) was 3.82 µM, the GI50 (HL-60) was 1.08 µM (active) and the GI50 (HOP-62) was 5.77 µM (inactive). For the same molecule, the GI50 (HOP-92) was 43.2 µM (inactive), the GI50 (HT-29) was 28.2 µM (inactive) and the GI50 (Hs-578T) was 6.93 µM (inactive). For the same molecule, the GI50 (IGROV-1) was 7.16 µM (inactive), the GI50 (K562) was 3.87 µM (inactive) and the GI50 (KM12) was 14.8 µM (inactive). For the same molecule, the GI50 (LOX IMVI) was 5.04 µM (inactive), the GI50 (M14) was 9.06 µM (inactive) and the GI50 (MCF7) was 3.4 µM (inactive). For the same molecule, the GI50 (MDA-MB-231) was 9.68 µM (inactive), the GI50 (MDA-MB-435) was 14.7 µM (inactive) and the GI50 (MDA-N) was 31.9 µM (inactive). The GI50 (MOLT-4) was 3.78 µM (inactive), the GI50 (Malme-3M) was > 30.3 µM (inactive) and the GI50 (NCI-H226) was 27.4 µM (inactive). For the same molecule, the GI50 (NCI-H23) was 6.12 µM (inactive), the GI50 (NCI-H460) was 6.95 µM (inactive) and the GI50 (NCI-H522) was 2.75 µM (inactive). The GI50 (NCI/ADR-RES) was 3.48 µM (inactive), the GI50 (OVCAR-3) was 2.99 µM (inactive) and the GI50 (OVCAR-4) was 3.38 µM (inactive). The GI50 (OVCAR-5) was 28 µM (inactive), the GI50 (OVCAR-8) was 3.7 µM (inactive) and the GI50 (PC-3) was 10.6 µM (inactive). The GI50 (RPMI-8226) was 4.91 µM (inactive), the GI50 (RXF 393) was 12.3 µM (inactive) and the GI50 (SF-268) was 3.85 µM (inactive). For the same molecule, the GI50 (SF-295) was 3.39 µM (inactive), the GI50 (SF-539) was 10.3 µM (inactive) and the GI50 (SK-MEL-28) was 58.7 µM (inactive). For the same molecule, the GI50 (SK-MEL-2) was 40.8 µM (inactive), the GI50 (SK-MEL-5) was 8.41 µM (inactive) and the GI50 (SK-OV-3) was 50.4 µM (inactive). For the same molecule, the GI50 (SN12C) was 7.33 µM (inactive), the GI50 (SNB-19) was > 32.4 µM (inactive) and the GI50 (SNB-75) was 28.1 µM (inactive). For the same molecule, the GI50 (SW-620) was 7.18 µM (inactive), the GI50 (T47D) was 4.42 µM (inactive) and the GI50 (TK-10) was 39.5 µM (inactive). For the same molecule, the GI50 (U-251) was 9.08 µM (inactive), the GI50 (UACC-257) was 6.27 µM (inactive) and the GI50 (UACC-62) was 5.51 µM (inactive). For the same molecule, the GI50 (UO-31) was 8.09 µM (inactive).

With `CC1=NN(C(=O)CC(=O)N(C(=O)c2ccccc2)c2ccc(Cl)cc2)C(=O)C1/N=N/c1ccc([N+](=O)[O-])cc1` (stereo not given) the GI50 (786-0) was > 10 µM (inactive), the GI50 (A498) was > 10 µM (inactive) and the GI50 (A549) was > 10 µM (inactive). For the same molecule, the GI50 (ACHN) was > 10 µM (inactive), the GI50 (BT-549) was > 10 µM (inactive) and the GI50 (CAKI-1) was > 10 µM (inactive). For the same molecule, the GI50 (CCRF-CEM) was > 10 µM (inactive), the GI50 (COLO 205) was > 10 µM (inactive) and the GI50 (DU-145) was > 10 µM (inactive). For the same molecule, the GI50 (EKVX) was > 10 µM (inactive), the GI50 (HCC 2998) was > 10 µM (inactive) and the GI50 (HCT-116) was > 10 µM (inactive). For the same molecule, the GI50 (HCT-15) was over 10 µM, the GI50 (HL-60) was > 10 µM (inactive) and the GI50 (HOP-62) was > 10 µM (inactive). The GI50 (HOP-92) was > 10 µM (inactive), the GI50 (HT-29) was > 10 µM (inactive) and the GI50 (Hs-578T) was > 10 µM (inactive). The GI50 (IGROV-1) was > 10 µM (inactive), the GI50 (K562) was > 10 µM (inactive) and the GI50 (KM12) was > 10 µM (inactive). For the same molecule, the GI50 (LOX IMVI) was > 10 µM (inactive), the GI50 (MCF7) was > 10 µM (inactive) and the GI50 (MDA-MB-231) was > 10 µM (inactive). The GI50 (MDA-MB-435) was > 10 µM (inactive), the GI50 (MDA-N) was > 10 µM (inactive) and the GI50 (MOLT-4) was 6.49 µM (inactive). For the same molecule, the GI50 (Malme-3M) was > 10 µM (inactive), the GI50 (NCI-H226) was > 10 µM (inactive) and the GI50 (NCI-H23) was > 10 µM (inactive). The GI50 (NCI-H460) was > 10 µM (inactive), the GI50 (NCI-H522) was > 10 µM (inactive) and the GI50 (NCI/ADR-RES) was > 10 µM (inactive). For the same molecule, the GI50 (OVCAR-3) was > 10 µM (inactive), the GI50 (OVCAR-4) was > 10 µM (inactive) and the GI50 (OVCAR-5) was > 10 µM (inactive). The GI50 (OVCAR-8) was > 10 µM (inactive), the GI50 (PC-3) was > 10 µM (inactive) and the GI50 (RPMI-8226) was > 10 µM (inactive). For the same molecule, the GI50 (RXF 393) was > 10 µM (inactive), the GI50 (SF-268) was > 10 µM (inactive) and the GI50 (SF-295) was > 10 µM (inactive). The GI50 (SF-539) was > 10 µM (inactive), the GI50 (SK-MEL-28) was > 10 µM (inactive) and the GI50 (SK-MEL-2) was > 10 µM (inactive). The GI50 (SK-MEL-5) was > 10 µM (inactive), the GI50 (SK-OV-3) was > 10 µM (inactive) and the GI50 (SN12C) was > 10 µM (inactive). The GI50 (SNB-19) was > 10 µM (inactive), the GI50 (SNB-75) was > 10 µM (inactive) and the GI50 (SW-620) was > 10 µM (inactive). The GI50 (T47D) was > 10 µM (inactive), the GI50 (TK-10) was > 10 µM (inactive) and the GI50 (U-251) was > 10 µM (inactive). For the same molecule, the GI50 (UACC-257) was > 10 µM (inactive), the GI50 (UACC-62) was > 10 µM (inactive) and the GI50 (UO-31) was > 10 µM (inactive).
